Results from PMC7215935, “GM1 Oligosaccharide Crosses the Human Blood–Brain Barrier In Vitro by a Paracellular Route” (International Journal of Molecular Sciences, 2020).
Read-outs that look alike come from different tables or passages of the source.

Experiments:
hBLECs = assay: Metabolic integrity of OligoGM1 after hBLEC transport (HPTLC autoradiography); assay type: in vitro ADME, human; conditions: basolateral compartment, detection limit 15 dpm
Description: Since OligoGM1 is tritium labeled at position 6 of the external galactose, any possible galactosidase activity present on the plasma membrane of hBLECs can result in external galactose removal, leading to loss of radioactivity from the penta-saccharide. Radiolabeled galactose may pass the BBB or may enter into the cells and be recycled for the biosynthesis of new glycans, so that the radioactivity found may correspond to the galactose or to any possible new glycan rather than to the original oligosaccharide.
Thus, to test the integrity of the OligoGM1 molecule after hBLEC crossing, OligoGM1 solution was prepared in RH buffer at a final concentration of 100 μM plus 1 × 10^6 dpm of tritium-labeled OligoGM1. For the apical–basolateral transport experiment, the hBLEC insert’s apical side was filled with 0.5 mL of the drug solution and placed on 1.5 mL RH buffer-filled well of a 12-well plate. After 60 min, the solution of the receiving compartment (about 1.5 mL) was collected and 200 μL were combined with 5 mL of ULTIMA GOLD liquid (PerkinElmer), shaken, and counted for 20 min by a liquid scintillation analyzer (TRI-CARB 2100TR, Packard).
To verify that the counted radioactivity indeed corresponded to [^3H]OligoGM1, 0.5 mL of receiving compartment solution was lyophilized and suspended in 0.5 mL of methanol. […]

[1] = system: human brain-like endothelial cells (hBLECs); assay: Direct transport (apical to basolateral, A → B) across the hBLEC monolayer: Pe and Papp; assay type: in vitro ADME; conditions: 300 μM apical, after 240 min
[2] = system: human brain-like endothelial cells (hBLECs); assay: as above; assay type: in vitro ADME
Protocol: (§1) Prior to the experiments, in order to verify the hBLECs’ monolayer integrity and stability, the permeability parameters were verified as previously reported. Briefly, 1.5 mL Ringer–Hepes solution (RH) (150 mM NaCl, 5.2 mM KCl, 2.2 mM CaCl2, 0.2 mM MgCl26H2O, 6 mM NaHCO3, 5 mM HEPES, pH: 7.4) was added to empty wells of a 12-well plate. Filter insert containing confluent monolayers of hBLECs or not (control) were subsequently placed in the 12-well plate, filled with 0.5 mL RH buffer containing the fluorescent integrity marker LY (50 μM), and then placed on an orbital shaker (150 rpm, Heidolph Titramax 100) at 37 °C in a humidify atmosphere of 95% air/5% CO2. Every 20 min for 1 h, filter inserts were withdrawn from the receiver compartment and placed in the next one. To verify the quantity of LY, at the end of the experiments, aliquots from the donor solution were taken at the end of the experiments and the fluorescence was quantified using a quantification curve of LY as referee. At least three inserts with cells and three without cells were tested in each permeability measurement. The fluorescence was measured using a luminescence spectrometer (LS 50B, Perkin Elmer), using the following excitation/emission wavelength (nm) settings: 432/538. Pe parameters were calculated according to the formulas shown in the Supplementary Information (Equations (7)–(10)). In parallel, as positive control for breakdown of hBLECs, D-mannitol, was used at a concentration of 1.4 M. At this concentration, mannitol induces an osmotic shock, and thus an increase in paracellular permeability.
(§2) Transport experiments were carried out by adding tritium-labeled GM1 or OligoGM1 (1 × 10^6 dpm) to cold GM1 or OligoGM1, respectively, at different concentrations, as specified below.
(§3) To identify and quantify the GM1 or OligoGM1 molecules in every transport experiment, aliquots from apical A (5 μL) and basolateral B (200 μL) compartments were collected at indicated time points and combined with 5 mL of ULTIMA GOLD liquid (PerkinElmer), shaken, and counted for 20 min by liquid scintillation analyzer (TRI-CARB 2100TR, Packard). Resulting radioactivity measures were used to estimate the quantity of the molecules. Experiments were performed on an agitation plate at 37 °C (150 rpm, Heidolph Titramax 100) in a humidify atmosphere of 95% air/5% CO2. At least three inserts with cells were tested in each transport experiment for each condition.
(§4) To examine flux from apical to basolateral compartments (A → B), 1.5 mL RH buffer was added to empty wells of a 12-well plate. Following this, the hBLEC filter was placed in the same 12-well plate and filled with 0.5 mL RH buffer containing 1 × 10^6 dpm of tritiated [^3H]GM1 or [^3H]OligoGM1 plus 50 μM of cold GM1 or OligoGM1 (Figure S3b).
(§5) To establish the time dependence of the transport experiments, hBLEC inserts filled with OligoGM1 were transferred into a new receiver well plate filled with fresh RH buffer every 20 min up to 240 min. The hBLECs’ properties, integrity, and stability were maintained up to 240 min in the transport experiments with RH buffer in the upper and basolateral side (see [28] and Figure S4).
(§6) To establish the dose dependence in the transport experiments, 1 × 10^6 dpm of tritiated [^3H]OligoGM1 plus 5, 10, 50, 100, and 300 μM OligoGM1 solutions were prepared and employed as described above. The hBLECs inserts were transferred into a new RH-filled receiver well plate every 20 min up to 60 min. […]
(§7) To evaluate the possible active transport involvement, the transport of OligoGM1 from apical to basolateral (A → B) compartments was performed at 4 °C, with the aim of inhibiting the active transport mechanism at low temperature. […]

[3] = as above; assay type: in vitro ADME, human; conditions: human, pH 7.4, 50 μM
Protocol: as §1, §2, §3, §4, §5, §6, §7

- metabolic stability after hBLEC crossing (hBLECs): not metabolized by hBLECs
- concentration in receiving compartment [1]: ~ 25 μM
- share of administered amount in receiving compartment ([1]; Transfectagro medium): 25%
- influence of BSA on rate of A → B transport ([2]; 50 μM, 0.1% (w/v) BSA in apical solution, 60 min): No difference in the rate of transport
- slope of linear regression: % of administered nmol in receiving compartment vs time (min) ([2]; 50 μM, 20-240 min, y = slope × x): 0.1097
- crossing rate / Pe of OligoGM1 relative to GM1 ([2]; 50 μM, hBLECs): 20 fold
- time dependence of A → B transport ([2]; 50 μM, up to 240 min): linear time dependence
- slope of linear regression: nmol in receiving compartment vs concentration (μM) ([2]; 5-300 μM, 60 min, y = slope × x): 0.04352
- concentration dependence of A → B transport ([2]; 5 to 300 μM, 60 min): proportional increase
- Papp A→B at 60 min, 50 μM ([3]; 60 min, 4 °C (Figure 6d), read-out: Papp A>B at 4 °C): 6.7 ± 0.17 ×10⁻⁶ cm/s
- Papp A→B at 60 min, 50 μM ([3]; 60 min, 37 °C, temperature experiment (Figure 6d), read-out: Papp A>B at 37 °C): 8.8 ± 0.24 ×10⁻⁶ cm/s
- Papp A→B at 60 min, 50 μM ([3]; after 60 min, hBLEC monolayer, read-out: endothelial permeability Pe (A → B) (converted)): 9.67 ×10⁻⁶ cm/s
SMILES: CC(=O)NC1C(O)CC(OC2C(O)C(OC3C(CO)OC(O)C(O)C3O)OC(CO)C2OC2OC(CO)C(O)C(OC3OC(CO)C(O)C(O)C3O)C2NC(C)=O)(C(=O)O)OC1C(O)C(O)CO (stereo not drawn) [OligoGM1, β-Gal-(1-3)-β-GalNAc-(1-4)-[α-Neu5Ac-(2-3)]-β-Gal-(1-4)-β-Glc]
